Patent publication US20250059229A1, “Compositions and Methods for Selective Labeling of Secondary Amines” (Emory University, priority 2021, published 2025)

Assay: Fluorescence (chromophoric) properties of 2H-indazole-3-carbaldehyde
Assay type: physicochemical
Conditions: FIG. 9D

fluorescence wavelength: about 500 nm
increase in fluorescence as compared to unmodified PAF (compared to unmodified PAF): 100 fold
SMILES: O=Cc1[nH]nc2ccccc12 [2H-indazole-3-carbaldehyde]
